In test [1] the test system is isolated rat ventricular cardiomyocytes. It is filed as cell-based. Conditions: for effect on calcium transient amplitudes: FIG. 25, field-stimulated (1 Hz) isolated rat ventricular cardiomyocytes; for increase in the calcium transient amplitude over control cells, functional equivalence compared to S100A1ct6/11: FIG. 26, 2 Hz, peptides added 30 min before assessment.

In test [2] the target is T1, RyR2 (Oryctolagus cuniculus, UniProt P30957).
T1 construct: Adult ventricular rabbit cardiomyocytes were isolated from four different animals; endogenous in cells; host or cells: adult ventricular rabbit cardiomyocytes, permeabilized with beta-escin
T1 sequence (P30957 whole entry): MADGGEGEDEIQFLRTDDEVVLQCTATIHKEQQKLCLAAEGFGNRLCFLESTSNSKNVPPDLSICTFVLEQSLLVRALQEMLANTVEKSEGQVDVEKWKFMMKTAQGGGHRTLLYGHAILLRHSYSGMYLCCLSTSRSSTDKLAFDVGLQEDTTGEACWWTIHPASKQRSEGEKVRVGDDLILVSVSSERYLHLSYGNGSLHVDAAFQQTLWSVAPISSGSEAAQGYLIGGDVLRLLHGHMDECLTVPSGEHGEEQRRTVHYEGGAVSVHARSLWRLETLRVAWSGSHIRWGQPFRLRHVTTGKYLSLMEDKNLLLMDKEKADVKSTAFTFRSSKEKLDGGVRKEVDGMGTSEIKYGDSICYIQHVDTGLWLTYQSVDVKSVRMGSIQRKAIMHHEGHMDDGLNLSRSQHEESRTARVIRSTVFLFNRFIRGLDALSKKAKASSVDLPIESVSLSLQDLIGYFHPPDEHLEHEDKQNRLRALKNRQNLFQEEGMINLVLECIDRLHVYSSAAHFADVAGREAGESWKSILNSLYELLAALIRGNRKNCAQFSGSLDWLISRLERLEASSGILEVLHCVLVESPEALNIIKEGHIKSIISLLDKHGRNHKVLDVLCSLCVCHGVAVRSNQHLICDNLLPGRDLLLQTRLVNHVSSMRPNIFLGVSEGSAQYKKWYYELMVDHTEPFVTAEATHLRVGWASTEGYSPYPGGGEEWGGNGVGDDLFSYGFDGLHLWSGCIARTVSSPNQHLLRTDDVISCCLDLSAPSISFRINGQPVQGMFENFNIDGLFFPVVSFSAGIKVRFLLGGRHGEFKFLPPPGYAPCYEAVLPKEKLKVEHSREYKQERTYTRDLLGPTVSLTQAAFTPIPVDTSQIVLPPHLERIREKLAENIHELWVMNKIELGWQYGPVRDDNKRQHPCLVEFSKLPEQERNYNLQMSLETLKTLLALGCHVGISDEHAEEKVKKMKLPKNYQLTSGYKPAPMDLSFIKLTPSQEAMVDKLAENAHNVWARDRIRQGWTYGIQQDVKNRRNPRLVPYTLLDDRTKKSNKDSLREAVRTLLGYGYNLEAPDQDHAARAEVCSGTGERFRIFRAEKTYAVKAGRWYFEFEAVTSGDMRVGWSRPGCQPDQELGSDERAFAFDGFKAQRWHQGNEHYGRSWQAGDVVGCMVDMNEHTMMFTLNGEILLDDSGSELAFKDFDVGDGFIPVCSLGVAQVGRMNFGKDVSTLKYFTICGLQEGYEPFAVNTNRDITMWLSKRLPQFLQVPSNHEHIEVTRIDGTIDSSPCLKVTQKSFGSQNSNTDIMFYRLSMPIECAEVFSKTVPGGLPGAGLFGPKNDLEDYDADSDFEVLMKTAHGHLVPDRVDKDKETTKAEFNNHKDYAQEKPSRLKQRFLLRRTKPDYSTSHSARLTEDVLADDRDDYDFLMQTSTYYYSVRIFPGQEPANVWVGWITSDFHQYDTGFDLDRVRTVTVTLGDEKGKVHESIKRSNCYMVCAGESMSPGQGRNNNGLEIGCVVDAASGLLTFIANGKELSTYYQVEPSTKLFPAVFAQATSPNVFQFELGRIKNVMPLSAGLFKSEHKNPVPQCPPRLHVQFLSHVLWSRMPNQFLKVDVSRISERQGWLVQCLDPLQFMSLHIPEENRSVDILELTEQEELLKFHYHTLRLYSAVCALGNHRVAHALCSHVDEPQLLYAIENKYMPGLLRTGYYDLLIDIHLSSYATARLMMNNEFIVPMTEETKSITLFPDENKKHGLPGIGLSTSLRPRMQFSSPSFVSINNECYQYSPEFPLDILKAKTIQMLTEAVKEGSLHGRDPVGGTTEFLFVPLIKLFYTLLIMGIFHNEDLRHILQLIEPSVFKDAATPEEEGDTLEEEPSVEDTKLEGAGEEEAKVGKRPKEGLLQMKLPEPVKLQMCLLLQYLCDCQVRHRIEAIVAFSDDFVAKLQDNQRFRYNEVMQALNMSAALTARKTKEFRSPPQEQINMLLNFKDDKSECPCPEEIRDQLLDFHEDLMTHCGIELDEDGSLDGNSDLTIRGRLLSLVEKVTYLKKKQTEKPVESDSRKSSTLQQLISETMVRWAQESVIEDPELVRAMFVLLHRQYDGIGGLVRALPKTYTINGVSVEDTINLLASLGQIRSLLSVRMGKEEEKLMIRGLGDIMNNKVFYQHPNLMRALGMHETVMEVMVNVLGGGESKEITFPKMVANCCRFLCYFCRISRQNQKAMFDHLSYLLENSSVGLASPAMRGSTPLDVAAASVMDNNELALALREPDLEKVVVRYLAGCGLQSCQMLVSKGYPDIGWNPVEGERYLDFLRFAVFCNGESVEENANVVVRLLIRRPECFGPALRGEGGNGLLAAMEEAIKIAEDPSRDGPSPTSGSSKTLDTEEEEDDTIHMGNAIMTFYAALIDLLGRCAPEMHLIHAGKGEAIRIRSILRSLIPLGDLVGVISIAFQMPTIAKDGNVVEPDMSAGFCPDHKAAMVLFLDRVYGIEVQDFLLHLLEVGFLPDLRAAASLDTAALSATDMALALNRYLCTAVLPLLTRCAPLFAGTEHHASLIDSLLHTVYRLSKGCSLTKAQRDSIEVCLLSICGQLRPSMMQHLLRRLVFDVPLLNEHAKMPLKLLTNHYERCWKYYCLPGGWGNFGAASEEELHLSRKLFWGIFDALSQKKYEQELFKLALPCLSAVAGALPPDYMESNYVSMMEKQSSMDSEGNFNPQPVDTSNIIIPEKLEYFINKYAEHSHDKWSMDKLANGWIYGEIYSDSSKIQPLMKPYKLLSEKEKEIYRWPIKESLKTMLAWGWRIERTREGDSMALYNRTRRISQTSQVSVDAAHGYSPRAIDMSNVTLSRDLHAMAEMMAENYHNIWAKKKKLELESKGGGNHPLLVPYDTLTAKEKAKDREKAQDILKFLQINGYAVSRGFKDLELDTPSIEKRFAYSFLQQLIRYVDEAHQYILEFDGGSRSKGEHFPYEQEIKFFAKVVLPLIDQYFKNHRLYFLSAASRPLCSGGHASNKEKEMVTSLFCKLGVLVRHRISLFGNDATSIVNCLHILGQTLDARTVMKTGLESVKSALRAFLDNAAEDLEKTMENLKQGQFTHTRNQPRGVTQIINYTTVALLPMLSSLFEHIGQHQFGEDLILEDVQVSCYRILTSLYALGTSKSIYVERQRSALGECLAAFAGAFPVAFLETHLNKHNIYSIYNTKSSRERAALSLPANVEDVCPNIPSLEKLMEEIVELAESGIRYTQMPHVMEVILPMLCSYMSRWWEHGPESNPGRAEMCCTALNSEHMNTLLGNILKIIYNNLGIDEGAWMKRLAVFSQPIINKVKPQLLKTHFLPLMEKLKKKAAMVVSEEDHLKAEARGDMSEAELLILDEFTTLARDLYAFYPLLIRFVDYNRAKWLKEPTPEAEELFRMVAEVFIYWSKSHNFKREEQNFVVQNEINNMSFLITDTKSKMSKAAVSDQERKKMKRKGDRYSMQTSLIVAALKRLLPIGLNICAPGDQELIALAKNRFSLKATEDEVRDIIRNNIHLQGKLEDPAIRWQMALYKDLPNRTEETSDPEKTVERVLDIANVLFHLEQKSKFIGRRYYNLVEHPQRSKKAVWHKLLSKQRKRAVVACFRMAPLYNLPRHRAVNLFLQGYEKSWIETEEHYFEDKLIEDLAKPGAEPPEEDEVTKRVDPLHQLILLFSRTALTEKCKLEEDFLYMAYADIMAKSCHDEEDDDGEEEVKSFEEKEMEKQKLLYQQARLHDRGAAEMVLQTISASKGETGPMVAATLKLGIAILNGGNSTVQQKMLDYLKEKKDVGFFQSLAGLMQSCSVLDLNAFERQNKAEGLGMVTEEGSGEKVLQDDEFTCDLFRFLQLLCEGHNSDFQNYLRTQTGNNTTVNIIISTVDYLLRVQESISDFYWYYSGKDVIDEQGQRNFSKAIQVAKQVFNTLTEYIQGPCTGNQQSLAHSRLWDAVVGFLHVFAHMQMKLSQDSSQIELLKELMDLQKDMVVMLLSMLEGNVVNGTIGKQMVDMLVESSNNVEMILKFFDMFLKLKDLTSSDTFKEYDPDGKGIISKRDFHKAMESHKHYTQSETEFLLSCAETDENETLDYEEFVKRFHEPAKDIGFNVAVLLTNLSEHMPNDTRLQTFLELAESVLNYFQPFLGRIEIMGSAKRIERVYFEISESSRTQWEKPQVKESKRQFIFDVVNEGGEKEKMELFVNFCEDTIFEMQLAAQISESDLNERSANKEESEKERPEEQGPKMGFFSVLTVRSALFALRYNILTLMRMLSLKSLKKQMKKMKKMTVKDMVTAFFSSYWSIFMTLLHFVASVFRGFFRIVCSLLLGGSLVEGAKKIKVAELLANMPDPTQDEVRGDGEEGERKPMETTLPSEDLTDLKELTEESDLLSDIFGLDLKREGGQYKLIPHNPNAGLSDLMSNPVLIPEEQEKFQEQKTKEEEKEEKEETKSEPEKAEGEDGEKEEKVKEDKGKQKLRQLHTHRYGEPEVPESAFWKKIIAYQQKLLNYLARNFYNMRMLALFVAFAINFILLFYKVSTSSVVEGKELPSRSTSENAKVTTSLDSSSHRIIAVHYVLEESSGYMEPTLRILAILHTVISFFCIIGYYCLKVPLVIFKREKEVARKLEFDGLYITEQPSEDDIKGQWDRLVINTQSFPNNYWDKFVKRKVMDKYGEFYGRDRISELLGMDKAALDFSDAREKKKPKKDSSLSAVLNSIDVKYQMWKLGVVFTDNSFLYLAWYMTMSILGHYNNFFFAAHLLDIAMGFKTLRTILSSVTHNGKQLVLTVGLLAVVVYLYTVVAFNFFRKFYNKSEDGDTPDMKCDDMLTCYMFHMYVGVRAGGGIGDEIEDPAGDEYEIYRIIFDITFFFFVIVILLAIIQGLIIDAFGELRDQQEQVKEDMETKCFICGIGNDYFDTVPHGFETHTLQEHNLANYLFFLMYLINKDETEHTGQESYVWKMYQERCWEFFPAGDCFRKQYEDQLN
The test is described as follows: Ca2+-spark frequency in permeabilized cardiomyocytes. It is filed as cell-based, rabbit. The procedure: Adult ventricular rabbit cardiomyocytes were isolated from four different animals as previously described (Loughrey C. M. et al., 2004, J. Physiol. 556:919-934) and permeabilized using β-escin (0.1 mg/ml). The permeabilized cells were incubated for 1 minute with rhodamine-labeled human S100A1 protein (0.1 μM) or FITC-labeled S100A1 C-terminal 20-mer peptide (0.1 μM) fused to a hydrophilic element (i.e. amino acids 75 to 94 of human S100A1 fused to the hydrophilic element D-K-D-D-P-P (SEQ ID NO: 17)). Cells were monitored using a Bio-Rad 2000 laser scanning confocal microscope (LSCM). A striated staining pattern can be observed that resembles the ryanodine staining pattern (FIG. 4).
Furthermore, Ca^2+-spark frequency has been assessed in the permeabilized cells treated with S100A1 protein or the S100A1 C-terminal 20-mer peptide fused to a hydrophilic element and it was shown that both, the full-length protein as well as the C-terminal fragment, decrease calcium spark frequency in permeabilized cardiomyocytes (FIGS. 5 and 6). […] Fluo-3 free acid (10 μM) present in the perfusing solution was excited at 488 nm (Kr-laser) and measured at >515 nm applying epifluorescence optics of an inverted microscope with a ×60-1.2 NA water-immersion objective lens. Fluorescence was acquired in line scan mode at 2 ms line^−1; pixel dimension was 0.3 μm (512 pixels scan^−1; zoom=1.4). […]

For test [3], the system named is permeabilized EDL murine skeletal muscle fibers. The experiment in a line: Isometric twitch force in permeabilized skeletal muscle fibers. The test is classed as cell-based, mouse. The procedure: Muscle Fiber Preparation and Experimental Solutions. All of the animals were handled according to the guidelines of the animal care committee of the University of Heidelberg. Male BALB/c mice (3-6-months-old) were sacrificed by an overdose of carbon dioxide, and muscle fiber preparation was carried out as previously described (Fink R. H. and Stephenson D. G., 1987, Pflugers Arch. Eur. J. Physiol. 409:374-380; Makabe M. et al., 1996, Pflugers Arch. Eur. J. Physiol. 432: 717-726). Either EDL (M. ext. dig. longum) or Soleus was isolated, and a small fiber bundle containing two to four single fibers (between 80 and 150 μm in diameter and 3-4-mm-long) was dissected in paraffin oil. […] The free ion concentrations were calculated with the computer program REACT (version 2.0) from G. L. Smith (Glasgow, Scotland). […]
It was shown that both, the full-length S100A1 protein as well as the C-terminal fragment, has a potency to enhance isometric twitch force in permeabilized murine skeletal muscle fibers (FIG. 7). […] Maximum force was measured in the high activating solution at pCa 4.28 and 5 mM caffeine. […] Several control transients were recorded before the fiber was exposed to the S100A1 protein or the S100A1 peptide mixture (N/H/C) or the C-terminal 20-mer alone, and the experiment was repeated as outlined above. […]

The subject of test [4] is adult intact cardiomyocytes or skeletal muscle fibers. The test is described as follows: Calcium homeostasis in adult intact cardiomyocytes or skeletal muscle fibers. It is filed as cell-based. Particulars: adult intact (non-permeabilized) cardiomyocytes or skeletal muscle fibers.

“Also recorded” adds a separate entry of the source. Ends that are not written are not given here.

This note sets out measurements from US9453053B2, “Short peptides for enhancing muscle function” (UNIVERSITAT HEIDELBERG, priority 2010, dated 2016).

The EC50 is the concentration that produces a half-maximal response.

With “D-K-D-D-P-P (DKDDPP; hydrophilic motif) [hydrophobic element, 6-mer hydrophilic motif tested alone as control, reference compound]”, the “effect on calcium transient amplitudes” value in test [1] is “do not exhibit the inotropic effect”.

In the case of “D-K-D-D-P-P-L-V-A-A-L-T-V-A (DKDDPPLVAALTVA) [N-78-85-C]”, the “effect on calcium transient amplitudes” value in test [1] is reported as “abolishes the inotropic effect”.

As to “D-K-D-D-P-P-V-A-A-L-T-V-A (DKDDPPVAALTVA; Functional peptide (Fig. 26)) [79-85]”, in test [1], the “effect on calcium transient amplitudes” value is given as “abolishes the inotropic effect” and the “increase in the calcium transient amplitude over control cells, functional equivalence compared to S100A1ct6/11” value is listed as “partial functional equivalence”.

“D-K-D-D-P-P-V-L-V-A-A-L-T-V-A (DKDDPPVLVAALTVA; Functional peptide (Fig. 26)) [77-85]”: in test [1], the “effect on calcium transient amplitudes” value was “abolishes the inotropic effect” and the “increase in the calcium transient amplitude over control cells, functional equivalence compared to S100A1ct6/11” value is “partial functional equivalence”.

For the substance “D-K-D-D-P-P-V-V-L-V-A-A-L (DKDDPPVVLVAAL; Functional peptide (Fig. 26)) [76-82]”, the “increase in the calcium transient amplitude over control cells, functional equivalence compared to S100A1ct6/11” value in test [1] is listed as “partial functional equivalence”.

For the substance “D-K-D-D-P-P-V-V-L-V-A-A-L-T (DKDDPPVVLVAALT; Functional peptide (Fig. 26)) [76-83]”, in test [1], the “increase in the calcium transient amplitude over control cells, functional equivalence compared to S100A1ct6/11” value was “partial functional equivalence”.

On to “D-K-D-D-P-P-V-V-L-V-A-A-L-T-V (DKDDPPVVLVAALTV; Functional peptide (Fig. 26)) [76-84]”, for which the “increase in the calcium transient amplitude over control cells, functional equivalence compared to S100A1ct6/11” value in test [1] is on record as “full functional equivalence”.

As for “DKDDPPYVVLVAALTVA [S100A1ct6/11, D-K-D-D-P-P-Y-V-V-L-V-A-A-L-T-V-A (SEQ ID NO: 42)]”, the EC50 in test [1] is 87 ± 6 nM.

On to “S100A1 protein: native human S100A1 protein, 94 amino acids, SEQ ID NO: 38; recombinant, rhodamine-labeled for imaging”, for which the “diastolic calcium spark frequency and RyR2 activity” value in test [2] is “decreases”. Moreover, the isometric twitch force result in test [3] was “enhances; also recorded: equivalent biological potency to enhance isometric force”. Besides, the calcium homeostasis result in test [4] is recorded as “does not alter”.

Regarding “YVVLVAALTVACNNFFWENS (SEQ ID NO: 39) (YVVLVAALTVACNNFFWENS; amino acids 75 to 94 of human S100A1) [20-mer S100A1 C-terminal peptide, amino acids 75-94 of human S100A1, reference compound]”, in test [2], the “diastolic calcium spark frequency and RyR2 activity” value was “decreases”. In test [3], the isometric twitch force result is given as “enhances; also recorded: equivalent biological potency to enhance isometric force”. Also, in test [4], the calcium homeostasis result is “does not alter”.
